Measured values as given in patent US9193736B2, “PDE 10a inhibitors for the treatment of type II diabetes” (Janssen Pharmaceutica, NV, priority 2013, dated 2015).
Where a name gives a salt, the structure may show the parent alone.

What was measured:
[1] = target: Rat recombinant PDE10a (rPDE10a) (Rattus norvegicus (Rat), UniProt Q9QYJ6); assay: In vitro assay PDE10a: rat recombinant PDE10a SPA with 3H-cAMP substrate, IC50; type: biochemical; conditions: 60 nM cAMP, read-out: rPDE10a2 IC50
How it was run: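 Enzyme expressed in Sf9 cells via baculovirus and Ni-sepharose purified; reaction with 3H-cAMP ran 60 min at rt, stopped with PDE SPA beads. Compounds diluted in DMSO at 100-fold final concentration; blanks omitted enzyme.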

[2] = target: Human recombinant PDE10A2 (Homo sapiens (Human), UniProt Q9Y233); assay: In vitro hPDE10a: human recombinant PDE10A2 scintillation proximity assay, IC50; type: biochemical; conditions: human recombinant PDE10A2, SPA, 60 nM cAMP; read-out: hPDE10a2 IC50
How it was run: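 Purified recombinant human PDE10A2 (Ni-sepharose) was assayed by SPA, counting [3H]-AMP product captured on yttrium silicate beads added in zinc sulphate stop solution. Inhibition was expressed as % of activity without compound, with a no-enzyme low control. Repeat data points were aggregated.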

Rat recombinant PDE10a (rPDE10a), sequence (Q9QYJ6 whole entry): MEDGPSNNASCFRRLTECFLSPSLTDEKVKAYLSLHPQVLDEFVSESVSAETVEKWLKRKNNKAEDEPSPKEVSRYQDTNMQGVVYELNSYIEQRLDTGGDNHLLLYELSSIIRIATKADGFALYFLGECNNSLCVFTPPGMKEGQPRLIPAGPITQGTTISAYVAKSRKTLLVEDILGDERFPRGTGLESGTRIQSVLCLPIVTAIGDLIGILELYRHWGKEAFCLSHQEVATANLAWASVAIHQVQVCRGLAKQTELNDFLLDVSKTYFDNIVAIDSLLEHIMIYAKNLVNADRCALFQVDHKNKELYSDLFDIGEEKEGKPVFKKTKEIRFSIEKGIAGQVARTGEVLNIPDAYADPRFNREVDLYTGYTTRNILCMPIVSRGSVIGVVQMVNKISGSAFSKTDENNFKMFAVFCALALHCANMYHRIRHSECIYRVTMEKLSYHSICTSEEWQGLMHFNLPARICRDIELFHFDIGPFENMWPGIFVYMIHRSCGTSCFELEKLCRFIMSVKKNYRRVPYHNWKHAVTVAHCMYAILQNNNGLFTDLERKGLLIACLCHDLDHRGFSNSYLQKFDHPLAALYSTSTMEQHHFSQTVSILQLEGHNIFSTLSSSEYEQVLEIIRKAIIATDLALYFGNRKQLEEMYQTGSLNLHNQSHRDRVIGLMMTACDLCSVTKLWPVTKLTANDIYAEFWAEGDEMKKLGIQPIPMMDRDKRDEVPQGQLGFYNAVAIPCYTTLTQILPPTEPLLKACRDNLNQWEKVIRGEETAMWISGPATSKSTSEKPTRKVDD
Human recombinant PDE10A2, sequence (Q9Y233 267-1055): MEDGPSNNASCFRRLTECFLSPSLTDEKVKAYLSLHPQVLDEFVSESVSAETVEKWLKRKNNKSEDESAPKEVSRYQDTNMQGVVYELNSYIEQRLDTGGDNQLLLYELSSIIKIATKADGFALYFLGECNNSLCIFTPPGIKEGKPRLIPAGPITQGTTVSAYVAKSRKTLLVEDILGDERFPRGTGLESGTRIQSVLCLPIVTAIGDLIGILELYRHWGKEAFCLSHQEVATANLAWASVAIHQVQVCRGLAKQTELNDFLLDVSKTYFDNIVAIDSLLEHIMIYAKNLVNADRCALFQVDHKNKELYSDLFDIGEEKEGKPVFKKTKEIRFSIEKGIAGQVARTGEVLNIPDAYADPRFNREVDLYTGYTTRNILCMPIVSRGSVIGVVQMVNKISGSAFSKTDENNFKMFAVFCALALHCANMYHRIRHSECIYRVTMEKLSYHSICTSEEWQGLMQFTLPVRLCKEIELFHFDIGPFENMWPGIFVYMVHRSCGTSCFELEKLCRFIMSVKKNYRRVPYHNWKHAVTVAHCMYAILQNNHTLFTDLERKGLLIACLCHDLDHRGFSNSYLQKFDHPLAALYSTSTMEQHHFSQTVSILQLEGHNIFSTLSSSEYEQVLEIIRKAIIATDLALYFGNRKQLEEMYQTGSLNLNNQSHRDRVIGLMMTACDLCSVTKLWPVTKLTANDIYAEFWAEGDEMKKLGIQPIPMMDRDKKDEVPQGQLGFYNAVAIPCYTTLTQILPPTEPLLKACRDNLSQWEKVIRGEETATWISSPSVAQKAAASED

SMILES	IC50 [1] [nM]	IC50 [2] [nM]
C(=C\c1nc2c(N3CCOCC3)ccnn2c1-c1cccc(-c2nnn[nH]2)c1)/c1ccc2ccccc2n1 [Cpd 105, (E)-4-(3-(3-(1H-Tetrazol-5-yl)phenyl)-2-(2-(quinolin-2-yl)vinyl)imidazo[1,2-b]pyridazin-8-yl)morpholine trifluoroacetic acid salt]	5	4
C(=C\c1nc2c(N3CCOCC3)ccnn2c1-c1ccc(N2CCNCC2)nc1)/c1ccc2ccccc2n1 [Cpd 177, (E)-4-(3-(6-(piperazin-1-yl)pyridin-3-yl)-2-(2-(quinolin-2-yl)vinyl)imidazo[1,2-b]pyridazin-8-yl)morpholine trifluoroacetic acid salt]	10	21
CS(=O)(=O)NC(=O)CCc1ccc(-c2c(/C=C/c3ccc4ccccc4n3)nc3c(N4CCOCC4)ccnn23)cn1 [Cpd 129, (E)-N-(Methylsulfonyl)-3-(5-(8-morpholino-2-(2-(quinolin-2-yl)vinyl)imidazo[1,2-b]pyridazin-3-yl)pyridin-2-yl)propanamide trifluoroacetic acid salt]	6	2
N#Cc1ccc(C#Cc2nc3c(N4CCOCC4)ccnn3c2-c2ccc(C(=O)O)cc2)nc1 [Cpd 96, 4-(2-((5-Cyanopyridin-2-yl)ethynyl)-8-morpholinoimidazo[1,2-b]pyridazin-3-yl)benzoic acid]	31	22
COc1cccc(-c2c(/C=C/c3ccc4c(C(=O)NS(C)(=O)=O)cccc4n3)nc3c(N4CCOCC4)ccnn23)c1 [Cpd 150, (E)-2-(2-(3-(3-Methoxyphenyl)-8-morpholinoimidazo[1,2-b]pyridazin-2-yl)vinyl)-N-(methylsulfonyl)quinoline-5-carboxamide]	6	6
CC(C)[C@H](NC(=O)c1ccc(-c2c(/C=C/c3ccc4ccccc4n3)nc3c(N4CCOCC4)ccnn23)cc1)C(=O)O [Cpd 73, (S,E)-3-Methyl-2-(4-(8-morpholino-2-(2-(quinolin-2-yl)vinyl)imidazo[1,2-b]pyridazin-3-yl)benzamido)butanoic acid trifluoroacetic acid salt]	7	8
O=C(O)CCNC(=O)c1ccc(-c2c(CCc3ccc4ccccc4n3)nc3c(N4CCOCC4)ccnn23)cc1 [compound 46, 3-(4-(8-Morpholino-2-(2-(quinolin-2-yl)ethyl)imidazo[1,2-b]pyridazin-3-yl)benzamido)propanoic acid]	1	3
CN1CCN(c2ccc(-c3c(CN(C)c4ccc5ccccc5n4)nc4c(N5CCOCC5)ccnn34)cn2)CC1 [Cpd 15, N-Methyl-N-((3-(6-(4-methylpiperazin-1-yl)pyridin-3-yl)-8-morpholinoimidazo[1,2-b]pyridazin-2-yl)methyl)quinolin-2-amine trifluoroacetic acid salt]	269	676
O=C(O)CNC(=O)c1ccc(-c2c(/C=C/c3ccc4ccccc4n3)nc3c(N4CCOCC4)ccnn23)cc1 [Cpd 66, (E)-2-(4-(8-Morpholino-2-(2-(quinolin-2-yl)vinyl)imidazo[1,2-b]pyridazin-3-yl)benzamido)acetic acid]	5	9
O=c1ncn(-c2ccc(-c3c(/C=C/c4ccc5ccccc5n4)nc4c(N5CCOCC5)ccnn34)cn2)[nH]1 [Cpd 56, (E)-1-(5-(8-Morpholino-2-(2-(quinolin-2-yl)vinyl)imidazo[1,2-b]pyridazin-3-yl)pyridin-2-yl)-1,2-dihydro-1,2,4-triazol-3-one trifluoroacetic acid salt]	7	4
O=C(O)c1ccc(-c2c(C#Cc3cccc(C(F)(F)F)n3)nc3c(N4CCOCC4)ccnn23)cc1 [Cpd 111, 4-(8-Morpholino-2-((6-(trifluoromethyl)pyridin-2-yl)ethynyl)imidazo[1,2-b]pyridazin-3-yl)benzoic acid]	17	~18
CS(=O)(=O)NC(=O)c1cccc2nc(/C=C/c3nc4c(N5CCOCC5)cc(Cl)nn4c3-c3cccnc3)ccc12 [Cpd 141, (E)-2-(2-(6-Chloro-8-morpholino-3-(pyridin-3-yl)imidazo[1,2-b]pyridazin-2-yl)vinyl)-N-(methylsulfonyl)quinoline-5-carboxamide]	23	58
O=C(O)c1ccc(-c2c(C#Cc3ccc(C(F)(F)F)cn3)nc3c(N4CCOCC4)ccnn23)cc1 [Cpd 97, 4-(8-Morpholino-2-((5-(trifluoromethyl)pyridin-2-yl)ethynyl)imidazo[1,2-b]pyridazin-3-yl)benzoic acid]	20	22
O=C(O)CCC(=O)Nc1ccc(-c2c(CCc3ccc4ccccc4n3)nc3c(N4CCOCC4)ccnn23)cc1 [compound 49, 4-((4-(8-Morpholino-2-(2-(quinolin-2-yl)ethyl)imidazo[1,2-b]pyridazin-3-yl)phenyl)amino)-4-oxobutanoic acid]	4	4
O=C(O)CC1CCN(c2c(/C=C/c3ccc4ccccc4n3)nc3c(N4CCOCC4)ccnn23)CC1 [Cpd 156, (E)-2-(1-(8-Morpholino-2-(2-(quinolin-2-yl)vinyl)imidazo[1,2-b]pyridazin-3-yl)piperidin-4-yl)acetic acid]	7	7
C(#Cc1cn2nccc(N3CCOCC3)c2n1)c1ccc2ccccc2n1 [Cpd 84, 2-[(8-Morpholin-4-ylimidazo[1,2-b]pyridazin-2-yl)ethynyl]quinoline]	< 1	< 1
O=C(O)c1ccc(-c2c(/C=C/c3ccc4ccccc4n3)nc3c(N4CCOCC4)ccnn23)cn1 [compound 92, (E)-5-(8-Morpholino-2-(2-(quinolin-2-yl)vinyl)imidazo[1,2-b]pyridazin-3-yl)picolinic acid]	5	4
O=C(O)c1ccc(Nc2c(/C=C/c3ccc4ccccc4n3)nc3c(N4CCOCC4)ccnn23)cc1 [Cpd 138, (E)-4-((8-Morpholino-2-(2-(quinolin-2-yl)vinyl)imidazo[1,2-b]pyridazin-3-yl)amino)benzoic acid]	2	5
c1ccc2nc(CNc3nc4c(N5CCOCC5)ccnn4c3-c3ccc(N4CCNCC4)nc3)ccc2c1 [Cpd 11, 8-Morpholino-3-(6-(piperazin-1-yl)pyridin-3-yl)-N-(quinolin-2-ylmethyl)imidazo[1,2-b]pyridazin-2-amine trifluoroacetic acid salt]	25	55
O=C(O)c1ccc(-c2c(C#Cc3ccc4ccccc4n3)nc3c(N4CCOCC4)ccnn23)cc1 [Cpd 77, 4-(8-Morpholino-2-(quinolin-2-ylethynyl)imidazo[1,2-b]pyridazin-3-yl)benzoic acid]	< 1	< 1
CN1CC=C(c2ccc(-c3c(COc4ccc5ccccc5n4)nc4c(N5CCOCC5)ccnn34)cn2)CC1 [Cpd 10, 4-(3-(1′-methyl-1′,2′,3′,6′-tetrahydro-[2,4′-bipyridin]-5-yl)-2-((quinolin-2-yloxy)methyl)imidazo[1,2-b]pyridazin-8-yl)morpholine]	17	43
CC(C)[C@H](NC(=O)c1ccc(-c2c(CCc3ccc4ccccc4n3)nc3c(N4CCOCC4)ccnn23)cc1)C(=O)O [Cpd 75, N-({4-[8-Morpholin-4-yl-2-(2-quinolin-2-ylethyl)imidazo[1,2-b]pyridazin-3-yl]phenyl}carbonyl)-L-valine]	7	4
C(=C\c1nc2c(N3CCOCC3)ccnn2c1-c1ccc(Sc2cnn[nH]2)nc1)/c1ccc2ccccc2n1 [Cpd 23, 2-[(E)-2-{8-Morpholin-4-yl-3-[6-(1H-1,2,3-triazol-5-ylsulfanyl)pyridin-3-yl]imidazo[1,2-b]pyridazin-2-yl}ethenyl]quinoline]	6	8
COc1cc(-c2c(C#Cc3ccc4ccccc4n3)nc3c(N4CCOCC4)ccnn23)ccc1C(=O)O [compound 91, 2-Methoxy-4-(8-morpholino-2-(quinolin-2-ylethynyl)imidazo[1,2-b]pyridazin-3-yl)benzoic acid]	< 1	< 1
O=c1[nH]c(-c2ccc(-c3c(COc4ccc5ccccc5n4)nc4c(N5CCOCC5)ccnn34)cn2)no1 [Cpd 35, 3-(5-(8-Morpholino-2-((quinolin-2-yloxy)methyl)imidazo[1,2-b]pyridazin-3-yl)pyridin-2-yl)-1,2,4-oxadiazol-5(4H)-one]	7	5
C(=C\c1nc2c(N3CCOCC3)ccnn2c1-c1ccc(-c2nnn[nH]2)cc1)/c1ccc2ccccc2n1 [compound 176, (E)-4-(3-(4-(1H-Tetrazol-5-yl)phenyl)-2-(2-(quinolin-2-yl)vinyl)imidazo[1,2-b]pyridazin-8-yl)morpholine]	6	6
COc1cc(/C=C/c2nc3c(N4CCOCC4)ccnn3c2-c2ccc(C(=O)O)cc2)nc2ccccc12 [Cpd 135, 4-{2-[(E)-2-(4-Methoxyquinolin-2-yl)ethenyl]-8-morpholin-4-ylimidazo[1,2-b]pyridazin-3-yl}benzoic acid]	10	6
O=C(O)CNC(=O)c1ccc(-c2c(CCc3ccc4ccccc4n3)nc3c(N4CCOCC4)ccnn23)cc1 [Cpd 68, 2-(4-(8-Morpholino-2-(2-(quinolin-2-yl)ethyl)imidazo[1,2-b]pyridazin-3-yl)benzamido)acetic acid trifluoroacetic acid salt]	6	5
O=C(O)c1cccc2nc(/C=C/c3cn4nccc(N5CCOCC5)c4n3)ccc12 [Cpd 115, 2-[(E)-2-(8-Morpholin-4-ylimidazo[1,2-b]pyridazin-2-yl)ethenyl]quinoline-5-carboxylic acid]	1	1
